One assay has as its system ASPC1 cells. Description: Inhibition of KRas-mediated phosphorylation of ERK (Cisbio HTRF pERK), ASPC1 cells. Format: cell-based. To be noted: Homo sapiens, AsPC-1 cells; for inhibition at 0.1 µM: ASPC1, single point at 100 nM, 3 hrs compound incubation; for IC50: ASPC1, 3 h, 3 hr compound incubation, Cisbio pERK HTRF. Background: Time-resolved FRET reads energy transfer from a long-lived donor to a nearby acceptor.

The test system of another assay is H727 cells. Put plainly: Inhibition of KRas-mediated phosphorylation of ERK (Cisbio HTRF pERK), H727 cells. Format: cell-based. To be noted: Homo sapiens; for inhibition at 0.1 µM: NCI-H727, single point at 100 nM, 3 hrs compound incubation; for IC50: NCI-H727, 3 h, 3 hr compound incubation, Cisbio pERK HTRF.
For a further assay, the system named is A549 cells. Put plainly: Inhibition of KRas-mediated phosphorylation of ERK (Cisbio HTRF pERK), A549 cells. To be noted: Homo sapiens; for inhibition at 0.1 µM: single point at 100 nM, 3 hrs compound incubation. Type of assay: cell-based.
Another assay has as its system H460 cells. Put plainly: Inhibition of KRas-mediated phosphorylation of ERK (Cisbio HTRF pERK), H460 cells. To be noted: Homo sapiens; for inhibition at 0.1 µM: NCI-H460, single point at 100 nM, 3 hrs compound incubation. Type of assay: cell-based.
In a further assay the test system is HCT116 cells. Put plainly: Inhibition of KRas-mediated phosphorylation of ERK (Cisbio HTRF pERK), HCT116 cells. Type of assay: cell-based. To be noted: Homo sapiens; for inhibition at 0.1 µM: HCT-116, single point at 100 nM, 3 hrs compound incubation.
The subject of the next assay is H358 cells. Put plainly: Inhibition of KRas-mediated phosphorylation of ERK (Cisbio HTRF pERK), H358 cells. Type of assay: cell-based. To be noted: Homo sapiens; for inhibition at 0.1 µM: NCI-H358, single point at 100 nM, 3 hrs compound incubation.
The next assay addresses KRas G12D (Homo sapiens, UniProt P01116, G12D). Put plainly: biochemical. To be noted: Binding to KRas (IC50 nM) G12D, TR-FRET displacement, KRas G12D.
A further assay concerns the target KRas G12R (Homo sapiens, UniProt P01116, G12R). Put plainly: biochemical. To be noted: Binding to KRas (IC50 nM) G12R, TR-FRET displacement, KRas G12R.
The target in another assay is KRas G12V (Homo sapiens, UniProt P01116, G12V). Description: biochemical. To be noted: Binding to KRas (IC50 nM) G12V, TR-FRET displacement, KRas G12V.
KRas G12V, sequence (P01116 1-169 isoform P01116-2 G12V): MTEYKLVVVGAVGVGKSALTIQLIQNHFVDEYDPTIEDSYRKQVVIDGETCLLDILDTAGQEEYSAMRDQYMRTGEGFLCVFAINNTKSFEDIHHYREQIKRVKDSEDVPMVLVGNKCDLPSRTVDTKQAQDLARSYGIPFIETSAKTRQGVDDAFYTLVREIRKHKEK

KRas G12D, sequence (P01116 1-169 isoform P01116-2 G12D): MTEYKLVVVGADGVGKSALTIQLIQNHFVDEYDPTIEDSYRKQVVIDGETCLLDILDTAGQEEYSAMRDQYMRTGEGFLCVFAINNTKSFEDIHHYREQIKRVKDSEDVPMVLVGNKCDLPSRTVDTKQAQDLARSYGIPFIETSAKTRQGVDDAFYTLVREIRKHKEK
KRas G12R, sequence (P01116 1-169 isoform P01116-2 G12R): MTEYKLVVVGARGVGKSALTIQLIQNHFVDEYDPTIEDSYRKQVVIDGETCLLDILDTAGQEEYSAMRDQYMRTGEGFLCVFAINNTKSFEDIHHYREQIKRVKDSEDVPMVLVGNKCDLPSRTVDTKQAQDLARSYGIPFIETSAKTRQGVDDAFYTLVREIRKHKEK

The term inhibition denotes the drop in the measured response relative to a control, in per cent. A word on the IC50: it is the concentration needed to halve the response being measured. A lower IC50 goes with inhibition by little substance. Consider `CCc1c(F)ccc2cc(O)cc(N3CCc4c(nc(N5CC(C)(N)C5)nc4N4CCCn5nc(C(=O)N(C)C)cc5C4)C3)c12` [Example 427, 5-(2-(3-amino-3-methylazetidin-1-yl)-7-(8-ethyl-7-fluoro-3-hydroxynaphthalen-1-yl)-5,6,7,8-tetrahydropyrido[3,4-d]pyrimidin-4-yl)-N,N-dimethyl-5,6,7,8-tetrahydro-4H-pyrazolo[1,5-a][1,4]diazepine-2-carboxamide], for which the inhibition at 0.1 µM in the assay with ASPC1 cells was -23%; in the assay with H727 cells it was -14%; with A549 cells it was 0%; in the assay on H460 cells, 25%; in the assay with HCT116 cells, 4%; in the assay with H358 cells it was -16%. Besides, the IC50 on KRas G12D was determined as 182 nM; on KRas G12R, 537 nM; at KRas G12V, 253 nM.

Regarding `CCc1c(F)ccc2cc(O)cc(N3CCc4c(nc(OCC5(CN(C)C)CC5)nc4N4CCCn5nc(C(=O)N6CCOCC6)cc5C4)C3)c12` [Example 429, (5-(2-((1-((dimethylamino)methyl)cyclopropyl)methoxy)-7-(8-ethyl-7-fluoro-3-hydroxynaphthalen-1-yl)-5,6,7,8-tetrahydropyrido[3,4-d]pyrimidin-4-yl)-5,6,7,8-tetrahydro-4H-pyrazolo[1,5-a][1,4]diazepin-2-yl)(morpholino)methanone], the IC50 is 113 nM with ASPC1 cells; 95 nM with H727 cells; less than 2 nM at KRas G12D; 3 nM on KRas G12R; less than 2 nM on KRas G12V. Also, the inhibition at 0.1 µM in the assay with A549 cells was 23%; with H460 cells, -3%; in the assay with HCT116 cells, -4%; in the assay with H358 cells, 19%.

For `CCc1c(F)ccc2cc(O)cc(N3CCc4c(nc(N5CC(N(C)C)C5)nc4N4CCCC5(C4)NC(=O)NC5=O)C3)c12` (centres unmarked) [Example 433, 7-(2-(3-(dimethylamino)azetidin-1-yl)-7-(8-ethyl-7-fluoro-3-hydroxynaphthalen-1-yl)-5,6,7,8-tetrahydropyrido[3,4-d]pyrimidin-4-yl)-1,3,7-triazaspiro[4.5]decane-2,4-dione], the IC50 in the assay on ASPC1 cells turned out to be 2610 nM; in the assay with H727 cells, 1160 nM; on KRas G12D, 26 nM; on KRas G12R, 11 nM; on KRas G12V, 10 nM. Moreover, the inhibition at 0.1 µM in the assay on ASPC1 cells is -5%; in the assay with H727 cells, 0%; in the assay with A549 cells, 9%; in the assay on H460 cells, 6%; in the assay with HCT116 cells, 1%; in the assay with H358 cells, -7%.

Regarding `O=S1(=O)NCC2(CCCN(c3nc(OC[C@@]45CCCN4C[C@H](F)C5)nc4c3CCN(c3cc(O)cc5ccc(F)c(F)c35)C4)C2)N1` (stereo partly drawn) [Example 447, 7-(7-(7,8-difluoro-3-hydroxynaphthalen-1-yl)-2-(((2R,7aS)-2-fluorohexahydro-1H-pyrrolizin-7a-yl)methoxy)-5,6,7,8-tetrahydropyrido[3,4-d]pyrimidin-4-yl)-2-thia-1,3,7-triazaspiro[4.5]decane 2,2-dioxide], the IC50 in the assay with ASPC1 cells worked out at 202 nM; in the assay on H727 cells, 179 nM; in the assay on A549 cells (A549, 3 h, 3 hr compound incubation, Cisbio pERK HTRF), 373 nM; with H460 cells (NCI-H460, 3 h, 3 hr compound incubation, Cisbio pERK HTRF), 170 nM; in the assay on HCT116 cells (HCT-116, 3 h, 3 hr compound incubation, Cisbio pERK HTRF), 338 nM; in the assay with H358 cells (NCI-H358, 3 h, 3 hr compound incubation, Cisbio pERK HTRF), 44 nM. Besides, the IC50 on KRas G12D, on KRas G12R and at KRas G12V was less than 2 nM throughout. Moreover, the inhibition at 0.1 µM in the assay on ASPC1 cells was 23%; in the assay on H727 cells it was 24%; with A549 cells it was 28%; in the assay on H460 cells, 35%; in the assay on HCT116 cells, 28%; in the assay with H358 cells, 61%.

On to `Oc1cc(N2CCc3c(nc(OC[C@@]45CCCN4C[C@H](F)C5)nc3N3CCCC4(CCO4)C3)C2)c2c(Cl)c(F)ccc2c1` (stereo partly drawn) [Example 463, 5-chloro-6-fluoro-4-(2-(((2R,7aS)-2-fluorohexahydro-1H-pyrrolizin-7a-yl)methoxy)-4-(1-oxa-6-azaspiro[3.5]nonan-6-yl)-5,6-dihydropyrido[3,4-d]pyrimidin-7(8H)-yl)naphthalen-2-ol], for which the concentration for half-maximal inhibition (IC50) with ASPC1 cells was 615 nM; in the assay with H727 cells, 597 nM; at KRas G12D, less than 2 nM; on KRas G12R, less than 2 nM; at KRas G12V it was less than 2 nM. Also, the inhibition at 0.1 µM in the assay on ASPC1 cells is 15%; in the assay on H727 cells, 20%; in the assay on A549 cells, 18%; in the assay with H460 cells, 2%; in the assay on HCT116 cells, -3%; with H358 cells, -13%.

Turning to `CN(C)CC1(COc2nc3c(c(N4CCCn5nc(C(=O)N6CCOCC6)cc5C4)n2)CCN(c2cc(O)cc4ccc(F)c(Cl)c24)C3)CC1` [Example 468, (5-(7-(8-chloro-7-fluoro-3-hydroxynaphthalen-1-yl)-2-((l-((dimethylamino)methyl)cyclopropyl)methoxy)-5,6,7,8-tetrahydropyrido[3,4-d]pyrimidin-4-yl)-5,6,7,8-tetrahydro-4H-pyrazolo[1,5-a][1,4]diazepin-2-yl)(morpholino)methanone], the IC50 was determined as 1940 nM with ASPC1 cells; 1770 nM in the assay with H727 cells; 2 nM at KRas G12D; 10 nM at KRas G12R; 3 nM at KRas G12V. Moreover, the inhibition at 0.1 µM with A549 cells was -12%; in the assay with H460 cells, -7%; in the assay with HCT116 cells, -4%; in the assay with H358 cells, -2%.

On to `CCc1c(F)ccc2cc(OC)cc(N3CCc4c(nc(OC[C@@]56CCCN5C[C@H](F)C6)nc4N4CCCn5nc(C(=O)N(C)C)cc5C4)C3)c12` [Example 469, 5-(7-(8-ethyl-7-fluoro-3-methoxynaphthalen-1-yl)-2-(((2R,7aS)-2-fluorohexahydro-1H-pyrrolizin-7a-yl)methoxy)-5,6,7,8-tetrahydropyrido[3,4-d]pyrimidin-4-yl)-N,N-dimethyl-5,6,7,8-tetrahydro-4H-pyrazolo[1,5-a][1,4]diazepine-2-carboxamide], for which the half-maximal inhibitory concentration (IC50) in the assay on ASPC1 cells was found to be 1200 nM; with H727 cells it was 1980 nM; on KRas G12D it was 8 nM; on KRas G12R it was 105 nM; at KRas G12V, 24 nM. In addition, the inhibition at 0.1 µM in the assay with A549 cells is -1%; in the assay on H460 cells, 2%; in the assay with HCT116 cells it was 0%; with H358 cells, 0%.

In the case of `CCc1c(F)ccc2cc(O)cc(N3CCc4c(nc(OC[C@@]56CCCN5C[C@H](F)C6)nc4N4CCCCC(COCC(N)=O)C4)C3)c12` (stereo partly drawn) [Example 492, 2-((1-(7-(8-ethyl-7-fluoro-3-hydroxynaphthalen-1-yl)-2-(((2R,7aS)-2-fluorohexahydro-1H-pyrrolizin-7a-yl)methoxy)-5,6,7,8-tetrahydropyrido[3,4-d]pyrimidin-4-yl)azepan-3-yl)methoxy)acetamide], the IC50 in the assay with ASPC1 cells came to 9040 nM; in the assay with H727 cells, 3940 nM; at KRas G12D, 11 nM; on KRas G12R, 6 nM; at KRas G12V it was 7 nM. Also, the inhibition at 0.1 µM in the assay on ASPC1 cells is -11%; in the assay with H727 cells it was 0%; with A549 cells, -24%; with H460 cells, 6%; in the assay on HCT116 cells, 23%; with H358 cells, -3%.

Take `CCc1c(F)ccc2cc(O)cc(N3CCc4c(nc(OC[C@@]56CCCN5C[C@H](F)C6)nc4N4CCCn5nc(CS(=O)(=O)N(C)C)cc5C4)C3)c12` [Example 494, 1-(5-(7-(8-ethyl-7-fluoro-3-hydroxynaphthalen-1-yl)-2-(((2R,7aS)-2-fluorohexahydro-1H-pyrrolizin-7a-yl)methoxy)-5,6,7,8-tetrahydropyrido[3,4-d]pyrimidin-4-yl)-5,6,7,8-tetrahydro-4H-pyrazolo[1,5-a][1,4]diazepin-2-yl)-N,N-dimethylmethanesulfonamide]: the IC50 came out at 749 nM in the assay with ASPC1 cells; 2580 nM in the assay on H727 cells; 12 nM at KRas G12D; 24 nM on KRas G12R; 26 nM on KRas G12V. Also, the inhibition at 0.1 µM in the assay on ASPC1 cells was -4%; in the assay with H727 cells, 13%; in the assay with A549 cells, 14%; in the assay with H460 cells, 4%; in the assay with HCT116 cells, 4%; with H358 cells, 8%.

These data come from patent US20250368649A1, “TETRAHYDROPYRIDOPYRIMIDINE PAN-KRAS INHIBITORS” (Mirati Therapeutics, Inc., priority 2022, published 2025).
